Key:
[1] = tested on: low passage proliferating fibroblasts; assay: Apoptosis of low passage proliferating lung fibroblasts (cleaved caspase-3, DAPI); assay type: cell-based, human; conditions: low passage proliferating fibroblasts from the same donor, 96 hours, 6-point dose-response, N=3
Procedure: Human adult lung fibroblasts were replicatively passaged until senescence (confirmed by RNA and senescence associated beta galactosidase staining). In a parallel experiment, low passage proliferating fibroblasts from the same donor were compared. Cells were plated into 96-well plates and treated with the indicated compound (6-point dose-response) and incubated for 96 hours. Cells were then fixed using 4% PFA, permeabilized using 0.25% triton x-100, and nuclear stained using a primary antibody for cleaved caspase-3, secondary fluorescence conjugated antibody, and DAPI. Cells were then imaged using a 4× objective on a Cytation5 microscope and cell counts were quantified using automated software (Biotek Gen5). Data shown are the EC50 values calculated for each compounds efficacy to induce apoptosis in senescence vs. proliferating lung fibroblasts, from the calculated dose-response curves, N=3 independent experiments.

Mdr2-/- mice = assay: Mdr2-/- mouse model of PSC with established liver fibrosis, oral treatment; assay type: in vivo; conditions: 4 weeks
Source text: 20 Mdr2^−/− mice (10 males, 10 females) approximately 7 months old with established liver fibrosis were assigned to receive either F-4N or vehicle ([…]) for 4 weeks. At the end of treatment, mice were sacrificed, and livers were collected to assess liver inflammation and fibrosis.

[2] = Microsomal stability, human liver derived microsomes; assay type: in vitro ADME
Procedure: The microsomal stability of F-4N was also assessed (FIG. 28). Compounds were incubated with human or mouse liver derived microsomes. The percent of F-4N recovered was analyzed by LC-MS. Verapamil was used as a control for a rapidly degraded compound. Analysis was performed by Cyprotex (Framingham, MA).

~400 kinases = assay: Kinome screen (Reaction Biology wild-type kinase panel, ATP competition assay); assay type: biochemical; conditions: 1 μM, Z-scores
Procedure: FIG. 4A. F-4N was sent to Reaction Biology to be tested against their entire wild-type kinase panel. 1 μM F-4N was tested in an ATP competition assay against 420+ kinases. Z-scores were calculated to identify true hits over noise.
Kinome screening was used to test F-4N (1 μM) against ˜400 kinases.

## O=c1c(O)c(-c2ccc(OCc3ccncc3)cc2)oc2ccccc12 [F—4N]
[1]
  Proliferating fibroblast apoptosis EC50: inactive
Mdr2-/- mice; oral delivery
  expression of fibrogenic genes in the liver: reduced expression
  liver fibrosis, especially parenchymal (bridging) fibrosis: Improvement of liver fibrosis
  tissue markers of liver inflammation and senescence: Significant reduction
Mdr2-/- mice; oral treatment
  liver mass: reduced
[2]
  microsomal stability: half-life and clearance rate: in line with many clinically approved orally administered drugs
~400 kinases
  Putative targets identified by kinome screening: STK17A (also known as DRAK1), STK17B (also known as DRAK2), and MYLK4, AURKB, FLT3, and KIT

Source: patent US20250368629A1, “FLAVONOID COMPOUNDS AND METHODS AND MATERIALS FOR USING FLAVONOID COMPOUNDS TO TREAT FIBROTIC CONDITIONS” (Mayo Foundation for Medical Education and Research, priority 2022, published 2025)
